According to the METLIN SMRT retention time set (Domingo-Almenara et al. 2019):

Assay: gradient 5% acetonitrile 3 min, to 50% in 2 min, to 85% in 15 min, held 3 min, 100 µL/min
Conditions: column: Zorbax Extend-C18 2.1 x 50 mm; eluents: water / acetonitrile, 0.1% formic acid
How it was run: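 Retention times of pure standards were taken from adduct peaks that were selected by computer and manually inspected. Over 3 months, mixtures of ~100 molecules were run by HPLC–quadrupole time-of-flight mass spectrometry in positive and negative ionization mode. The Zorbax Extend-C18 column (2.1 × 50 mm, 1.8 μm) ran at 100 μL/min in water and acetonitrile, each containing 0.1% formic acid, with 40 μL dead volume and 900 μL dwell volume.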

| SMILES | RP-LC retention time |
| --- | --- |
| Cc1ccc(NC(=O)N2CCc3cn(C)c4cccc(c34)C2)c(C)c1 | 980 s |
| COc1cccc(-c2c(C(=O)O)nnn2Cc2ccccc2F)c1 | 776 s |
| O=C(CN1C(=O)C2CCCCN2c2ccc(C(=O)N3CCCC3)cc21)Nc1cccc(Cl)c1 (configuration not stated) | 676 s |
| CC(=O)N1CCc2cc(N3CC(C(=O)NC(C)c4ccc(C)cc4C)CC3=O)ccc21 (configuration not stated) | 772 s |
| COc1cc(OC)c(NC(=O)N2CCC3(CC2)N=C(c2cccc(F)c2)C(=O)N3)cc1Cl | 886 s |
| CCN1CCCn2nc(C3CCN(S(=O)(=O)c4ccc(C)c(C)c4)CC3)cc2C1=O | 891 s |
| CC(C)n1c(N2CCN(C(=O)c3ccc4c(c3)OCO4)CC2)cc(=O)n(C(C)C)c1=O | 823 s |
| CCc1nnc(-c2ccc(S(=O)(=O)N3CCCC(C)C3)o2)o1 (configuration not stated) | 906 s |
| O=C(Cn1nc2c(N3CCc4ccccc4C3)nccn2c1=O)NCCC1=CCCCC1 | 984 s |
| CCOc1ccc(C(=O)NCc2c(C)noc2C)cc1OCC | 757 s |
| Cc1ccc2nc(CCNC(=O)Cn3nc(C(=O)N4CCCC4)c4ccccc43)[nH]c2c1 | 613 s |
| CC1CCN(C(=O)CN2C(=O)COc3ccc(C(=O)N4CCCC4)cc32)CC1 | 698 s |
| CC(C)NC(=O)C1CCCN(c2nc3ncn(CC(=O)Nc4cccc(C(C)C)c4)c(=O)c3s2)C1 (configuration not stated) | 791 s |
| O=C(Cn1c(N2CCCCC2)nc2ccccc2c1=O)N1CCN(c2ccccn2)CC1 | 643 s |
| CCC(C)NC(=O)c1ccc2ncnc(N3CCCCC3)c2c1 (configuration not stated) | 618 s |
| CC(C)(C)C(=O)Nc1ccc(N2CCN(CC(=O)N3CCCC3)CC2)cc1C(=O)O | 573 s |
| Cc1cc(Cl)ccc1NC(=O)C1CCCN(S(=O)(=O)c2c[nH]c(C(=O)N3CCCC3)c2)C1 (configuration not stated) | 852 s |
| Cc1cc(C(=O)N2CCN(c3ccccn3)CC2)nc2ccnn12 | 556 s |
| CCOC(=O)c1ccc(NC(=O)CSc2cc(N3CCC(C(=O)NC4CC4)CC3)ncn2)cc1 | 748 s |
| CCc1nc2ncc(-c3ccnc(N4CCN(C)CC4)n3)c(C)n2n1 | 562 s |
| O=C(Nc1ncc([N+](=O)[O-])s1)c1ccc([N+](=O)[O-])c(Cl)c1 | 946 s |
| CCC(C)Cn1c(CNC(=O)c2ccco2)nc2ccccc21 (configuration not stated) | 664 s |
| CC(C)CCNC(=O)CN1C(=O)C2CCCCN2c2ccc(S(=O)(=O)N3CCCC3)cc21 (configuration not stated) | 940 s |
| CC1=C/C(=C2/N=C(N(C)C)SS2)C(C)=N1 | 611 s |
| CCN(CC)c1ncc(NC(=O)c2ccc(Br)cc2)cc1C(=O)O | 692 s |

| SMILES | RP-LC retention time |
| --- | --- |
| COc1cc(C(=O)Nc2sc3c(c2C(N)=O)CC(C)CC3)cc(OC)c1OC (configuration not stated) | 1020 s |
| CC(C)(C)NC(=O)Cn1ccn2nc(-c3ccccc3)c(CO)c2c1=O | 721 s |
| Cc1cc(C)cc(N2CCC(NC(=O)Nc3ccc(C)cc3C)C2=O)c1 (configuration not stated) | 938 s |
| Cn1nc(C(=O)N2CCCC2)c2c1CCN(C(=O)CCC(=O)NCCN1CCCCC1)C2 | 574 s |
| CCC1CCCCN1C(=O)c1cnc2nc(C)ccc2c1Nc1cc(OC)cc(OC)c1 (configuration not stated) | 674 s |
| CC(=O)N1CCc2nn(CC(=O)Nc3ccc(Cl)cc3F)c(=O)cc2C1 | 663 s |
| COC(=O)c1cc(C2CC2)nc2c1c(=O)n(Cc1ccccc1F)c(=O)n2C | 1080 s |
| CCn1ncc(NC(=O)c2ccc(Br)cc2)c(N2CCOCC2)c1=O | 884 s |
| COc1ccccc1OCC1c2ccsc2CCN1C(=O)CN(CC1CC1)C(=O)C(C)C (configuration not stated) | 947 s |
| CCC1CN2C=NC(N3CCN(C(=O)c4nn(CC)cc4Cl)CC3)=CC2=N1 (configuration not stated) | 602 s |
| CCN(CC)CCNC(=O)CCc1c(C)nc2c(c1C)c(=O)n(C)c(=O)n2C | 602 s |
| CC(C)CN1C(=O)c2cccn2CC1CNC(=O)c1cccs1 (configuration not stated) | 715 s |
| CCNC(=O)c1ccc2nc(C)c(C)nc2c1 | 618 s |
| COc1cc(NC(=O)Cn2cnc3nc(N4CCCC4)ncc3c2=O)cc(OC)c1 | 703 s |
| Cc1cc(NC(=O)CSc2nc3ccccc3o2)sn1 | 726 s |
| CCCCC(=O)N1CCN(c2ncccc2-c2nnc(C(C)C)o2)CC1 | 794 s |
| COC(=O)C1=C(C)NC(=O)NC1c1ccc(Cl)c(Cl)c1 (configuration not stated) | 726 s |
| O=C(C1CCC1)N1CCc2sc(S(=O)(=O)Nc3cccc(Cl)c3)cc2C1 | 941 s |
| Cc1nn(C(C)C(=O)NCCc2ccccc2)c(=O)c2c(-n3cccc3)n(-c3ccccc3)nc12 (configuration not stated) | 1070 s |
| CCCN(C)c1nccnc1OC1CCN(C(=O)C(CC)CC)C1 (configuration not stated) | 842 s |
| CCC1CN2C=NC(N3CCN(C(=O)Cc4ccccc4)CC3)=CC2=N1 (configuration not stated) | 615 s |
| Cc1ccc(C)c(-c2cc3c4nn(CC(=O)NC5CCCC5)c(=O)n4ccn3n2)c1 | 909 s |
| CCN(CC)CCCNC(=O)C(C)n1c2ccccc2c2cnn(C)c(=O)c21 (configuration not stated) | 559 s |
| CCn1nnc2c(N3CCc4cc(OC)c(OC)cc4C3C)ncnc21 (configuration not stated) | 784 s |
| COC1C(=O)N(c2cccc(F)c2)C12CCN(S(=O)(=O)c1cccs1)CC2 (configuration not stated) | 937 s |

Second part, the molecule after the results:

| RP-LC retention time | SMILES |
| --- | --- |
| 729 s | COc1ccccc1CC(=O)N1C[C@@H]2C[C@H]1C[C@@H]2NC(=O)c1ccccc1 |
| 693 s | c1cncc(-c2nc(-c3ccc(OC4CN(Cc5ccsc5)C4)cc3)no2)c1 |
| 616 s | O=C(Nc1ccc(S(=O)(=O)Nc2nccs2)cc1)c1ccco1 |
| 984 s | COc1ccc(-n2ncc3c(=O)n(Cc4nc(-c5cccc(OC)c5)no4)cnc32)cc1 |
| 904 s | Cc1noc(-c2cc(=O)n(CC(=O)Nc3cc(F)cc(F)c3)c3ccccc23)n1 |
| 881 s | CC(C)NC(=O)c1ccc(OCC2CCCN2C(=O)c2cc(F)ccc2Cl)cc1 (configuration not stated) |
| 1020 s | Cc1ccc(-c2noc(CN3N=NC4C(=O)N(c5cccc(F)c5)C(=O)C43)n2)cc1 (configuration not stated) |
| 917 s | CC(C)OC(=O)CSc1nnc2c(S(=O)(=O)N3CCN(c4ccc(F)cc4)CC3)cccn12 |
| 515 s | Cc1cccc2nnc(N3CCN(C(=O)c4cccnc4)CC3)n12 |
| 1050 s | Cc1noc(-c2cccn2Cc2ccccc2F)n1 |
| 866 s | O=S(=O)(c1cccn2cnnc12)N(Cc1cccc(F)c1)c1ccc(F)c(F)c1 |
| 812 s | COc1ccc(NC(=O)c2ccc(-c3ccc(-c4noc(C)n4)cc3C)cc2)cc1N1CCN(C)CC1 |
| 800 s | CNC(=O)[C@@H]1C[C@H](Oc2ccccc2)CN1C(=O)CCCc1c[nH]c2ccccc12 |
| 654 s | COc1ccc(-c2n[nH]c3c2C(c2cccc(O)c2)NC3=O)cc1 (configuration not stated) |
| 689 s | CC(=O)Nc1ccc(-c2noc(C3CCN(C(=O)C4CC4)CC3)n2)cc1 |
| 833 s | Cc1nc(-c2noc(-c3ccncc3)n2)cn1CC(=O)Nc1cccc(F)c1 |
| 907 s | CCOc1ccc(NS(=O)(=O)c2ccc3c(c2)C(=O)N(C)c2ncccc2O3)cc1 |
| 878 s | COc1ccc(-c2nnc(-c3ccc(C)c(S(=O)(=O)N(C)C)c3)o2)cc1OC |
| 888 s | C[C@H]1CN(C(=O)Nc2ccc3c(c2)CCC3)C[C@@H]1c1nc(-c2ccncc2)no1 |

| RP-LC retention time | SMILES |
| --- | --- |
| 835 s | O=c1n(CC2CC2)c2cccnc2n1[C@H]1CCCN(S(=O)(=O)c2cccnc2)C1 |
| 818 s | CNCC[C@H](Oc1ccc(C(F)(F)F)cc1)c1ccccc1 |
| 1130 s | CCCCN1C(=O)NC(c2ccccc2)C(c2nc(-c3ccccc3)no2)=C1C (configuration not stated) |
| 978 s | Cn1cc2c3c(cccc31)CN(C(=O)Nc1ccccc1C(F)(F)F)CC2 |
| 885 s | COc1ccc(C(=O)N(C2CCCC2)C2(C(=O)NCc3ccccc3)CCN(C(C)=O)CC2)cc1 |
| 782 s | Cc1nc(OCC(=O)Nc2ccc(F)c(Cl)c2)c2ccccc2n1 |
| 816 s | Cc1ccc(Cn2nccc2NC(=O)c2cc(=O)c3ccccc3o2)cc1 |
| 607 s | COc1ccc(OC)c(CN2CCc3nc(N4CCOCC4)ncc3C2)c1 |
| 703 s | COc1ccc(-c2noc(C3CCN(CC(=O)Nc4ccc5c(c4)OCO5)CC3)n2)cc1 |
| 692 s | CCOc1ccc(-n2c(SCC(=O)Nc3ncn[nH]3)nc3ccsc3c2=O)cc1 |
| 618 s | Cc1nnc(-c2ccc3ccn(CC(=O)Nc4ncccc4C)c3c2)o1 |
| 721 s | O=C(Nc1nc(CCC(=O)N2CCn3c2nc2ccccc23)cs1)c1ccc(F)cc1 |
| 803 s | CCOc1ccc(N2CC(c3nnc(NC(=O)c4ccc(Cl)cc4)o3)CC2=O)cc1 (configuration not stated) |
| 923 s | O=C(Cn1nc2c3cc(-c4ccc(F)cc4)nn3ccn2c1=O)Nc1ccc(Br)cc1 |
| 756 s | Cc1nc(OCC(=O)Nc2c(C)cccc2C)c2ccccc2n1 |
| 862 s | Cc1ccc(CNC(=O)C2CCN(S(=O)(=O)c3ccc4c(c3)sc(=O)n4C)CC2)cc1 |
| 1040 s | CCc1nc2cc(-c3noc(-c4cccc5[nH]ccc45)n3)ccc2o1 |
| 795 s | O=C(NCc1ccc(F)cc1F)c1ccc2c(c1)nc1n2CCN(Cc2ccccc2)C1=O |
